Experiment [1] has as its target Receptor tyrosine-protein kinase erbB-2 (Homo sapiens, UniProt P04626).
Experiment [2] has as its target T1, Non-receptor tyrosine-protein kinase TNK1 (Homo sapiens, UniProt Q13470).
T1 sequence (Q13470 whole entry): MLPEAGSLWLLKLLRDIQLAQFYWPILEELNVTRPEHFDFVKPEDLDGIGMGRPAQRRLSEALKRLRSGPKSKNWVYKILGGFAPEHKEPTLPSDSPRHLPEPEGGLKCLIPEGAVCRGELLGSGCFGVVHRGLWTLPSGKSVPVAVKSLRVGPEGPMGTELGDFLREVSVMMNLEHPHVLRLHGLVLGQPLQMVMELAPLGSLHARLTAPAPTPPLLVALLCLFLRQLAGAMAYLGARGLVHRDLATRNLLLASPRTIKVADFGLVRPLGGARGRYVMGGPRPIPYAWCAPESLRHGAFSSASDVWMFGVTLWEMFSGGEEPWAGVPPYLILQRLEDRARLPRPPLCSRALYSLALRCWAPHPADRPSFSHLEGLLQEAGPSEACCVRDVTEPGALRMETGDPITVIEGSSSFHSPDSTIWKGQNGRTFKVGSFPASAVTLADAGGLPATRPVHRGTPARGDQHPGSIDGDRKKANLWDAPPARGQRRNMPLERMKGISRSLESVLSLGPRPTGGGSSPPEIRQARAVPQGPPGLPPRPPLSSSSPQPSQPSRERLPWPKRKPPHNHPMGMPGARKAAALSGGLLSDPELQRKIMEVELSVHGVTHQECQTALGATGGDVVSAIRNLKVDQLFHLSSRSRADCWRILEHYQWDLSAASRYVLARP

The target of experiment [3] is Proto-oncogene tyrosine-protein kinase receptor Ret (Homo sapiens, UniProt P07949, M918T).
Sequence of Proto-oncogene tyrosine-protein kinase receptor Ret (P07949 29-1114 M918T limits assumed): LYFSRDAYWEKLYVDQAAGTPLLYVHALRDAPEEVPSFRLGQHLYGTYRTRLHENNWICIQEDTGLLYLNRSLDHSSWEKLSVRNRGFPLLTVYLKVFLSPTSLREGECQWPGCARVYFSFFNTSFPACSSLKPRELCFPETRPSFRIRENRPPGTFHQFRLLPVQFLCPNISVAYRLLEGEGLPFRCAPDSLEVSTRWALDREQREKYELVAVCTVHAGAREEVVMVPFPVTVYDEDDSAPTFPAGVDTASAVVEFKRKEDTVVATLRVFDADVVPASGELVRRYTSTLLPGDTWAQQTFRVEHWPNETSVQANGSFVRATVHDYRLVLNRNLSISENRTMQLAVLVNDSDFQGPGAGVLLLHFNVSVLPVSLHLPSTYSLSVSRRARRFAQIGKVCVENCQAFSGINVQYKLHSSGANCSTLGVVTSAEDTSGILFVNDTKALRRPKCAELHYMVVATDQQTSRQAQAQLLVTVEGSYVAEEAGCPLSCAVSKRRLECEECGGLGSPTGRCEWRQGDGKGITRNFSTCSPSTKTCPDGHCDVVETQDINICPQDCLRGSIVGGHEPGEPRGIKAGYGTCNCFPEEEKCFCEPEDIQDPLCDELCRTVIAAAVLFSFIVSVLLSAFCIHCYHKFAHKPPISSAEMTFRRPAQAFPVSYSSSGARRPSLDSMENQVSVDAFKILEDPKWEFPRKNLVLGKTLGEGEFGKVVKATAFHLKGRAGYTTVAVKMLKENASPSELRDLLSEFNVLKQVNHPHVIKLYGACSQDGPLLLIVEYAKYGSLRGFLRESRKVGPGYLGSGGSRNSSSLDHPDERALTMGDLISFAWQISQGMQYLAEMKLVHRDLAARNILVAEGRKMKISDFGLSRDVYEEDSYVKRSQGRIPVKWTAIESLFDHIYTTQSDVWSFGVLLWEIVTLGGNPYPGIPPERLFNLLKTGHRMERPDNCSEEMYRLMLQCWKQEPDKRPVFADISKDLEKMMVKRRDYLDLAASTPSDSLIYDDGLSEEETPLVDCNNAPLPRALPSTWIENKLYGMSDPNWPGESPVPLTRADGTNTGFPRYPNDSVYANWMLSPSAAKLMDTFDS
The next experiment addresses Aurora kinase B (Homo sapiens, UniProt Q96GD4).
In experiment [4] the target is Tyrosine-protein kinase Lck (Homo sapiens, UniProt P06239).
The next experiment addresses T2, Activin receptor type-1 (Homo sapiens, UniProt Q04771).
T2 sequence (Q04771 whole entry): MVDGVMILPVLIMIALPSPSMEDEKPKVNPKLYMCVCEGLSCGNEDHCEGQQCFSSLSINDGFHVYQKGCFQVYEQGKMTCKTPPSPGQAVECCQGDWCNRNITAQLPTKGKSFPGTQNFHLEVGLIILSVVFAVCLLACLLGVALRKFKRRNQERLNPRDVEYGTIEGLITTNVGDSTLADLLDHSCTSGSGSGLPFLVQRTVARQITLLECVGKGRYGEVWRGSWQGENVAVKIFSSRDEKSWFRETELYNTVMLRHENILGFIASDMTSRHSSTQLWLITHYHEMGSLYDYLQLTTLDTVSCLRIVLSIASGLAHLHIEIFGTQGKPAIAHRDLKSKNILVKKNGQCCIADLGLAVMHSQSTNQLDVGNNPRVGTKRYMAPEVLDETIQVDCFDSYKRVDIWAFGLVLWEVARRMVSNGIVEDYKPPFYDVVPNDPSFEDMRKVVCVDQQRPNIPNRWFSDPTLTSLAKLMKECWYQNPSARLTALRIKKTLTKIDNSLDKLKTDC

Experiment [5] concerns the target T3, Mitogen-activated protein kinase 15 (Homo sapiens, UniProt Q8TD08).
T3 sequence (Q8TD08 whole entry): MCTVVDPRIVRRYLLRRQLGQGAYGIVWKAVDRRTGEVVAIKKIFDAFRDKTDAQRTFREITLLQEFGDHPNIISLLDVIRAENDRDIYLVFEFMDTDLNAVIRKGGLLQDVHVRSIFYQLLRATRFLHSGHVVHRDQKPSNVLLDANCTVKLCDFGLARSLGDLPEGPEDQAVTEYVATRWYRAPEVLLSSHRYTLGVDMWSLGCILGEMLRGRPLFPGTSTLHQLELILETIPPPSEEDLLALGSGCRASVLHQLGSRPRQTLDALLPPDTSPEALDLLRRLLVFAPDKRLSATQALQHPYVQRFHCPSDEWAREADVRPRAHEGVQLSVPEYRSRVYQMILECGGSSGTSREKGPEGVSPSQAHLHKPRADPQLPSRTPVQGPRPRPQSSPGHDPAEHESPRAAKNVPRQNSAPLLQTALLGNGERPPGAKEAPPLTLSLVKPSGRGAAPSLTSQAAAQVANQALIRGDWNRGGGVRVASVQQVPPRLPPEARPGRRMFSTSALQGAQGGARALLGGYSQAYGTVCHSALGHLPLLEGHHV

Experiment [6] has as its target Dual specificity mitogen-activated protein kinase kinase 2 (Homo sapiens, UniProt P36507).
Experiment [7] deals with Ribosomal protein S6 kinase alpha-2 (Homo sapiens, UniProt Q15349).
The target of another experiment is Myosin-IIIa (Homo sapiens, UniProt Q8NEV4).
Experiment [8] deals with Serine/threonine-protein kinase PAK 4 (Homo sapiens, UniProt O96013).
Sequence of Serine/threonine-protein kinase PAK 4 (O96013 whole entry): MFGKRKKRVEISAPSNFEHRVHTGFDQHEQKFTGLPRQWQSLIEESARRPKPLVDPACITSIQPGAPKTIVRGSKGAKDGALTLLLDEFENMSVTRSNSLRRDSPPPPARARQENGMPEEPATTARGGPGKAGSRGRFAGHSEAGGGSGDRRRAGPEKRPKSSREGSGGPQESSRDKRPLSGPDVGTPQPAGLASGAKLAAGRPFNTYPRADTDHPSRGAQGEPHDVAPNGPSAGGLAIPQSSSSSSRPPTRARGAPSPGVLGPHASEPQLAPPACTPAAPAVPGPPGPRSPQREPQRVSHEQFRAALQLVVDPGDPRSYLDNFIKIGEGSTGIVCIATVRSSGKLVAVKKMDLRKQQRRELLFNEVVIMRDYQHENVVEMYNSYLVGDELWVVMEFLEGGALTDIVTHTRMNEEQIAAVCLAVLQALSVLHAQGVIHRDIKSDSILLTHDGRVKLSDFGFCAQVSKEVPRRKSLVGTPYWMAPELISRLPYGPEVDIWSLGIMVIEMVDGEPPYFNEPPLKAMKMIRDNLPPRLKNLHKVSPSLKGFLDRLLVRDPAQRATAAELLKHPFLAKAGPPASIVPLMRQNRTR
Experiment [9] concerns the target Tyrosine-protein kinase ABL1 (Homo sapiens, UniProt P00519, T315I).
Experiment [10] addresses T4, Membrane-associated tyrosine- and threonine-specific cdc2-inhibitory kinase (Homo sapiens, UniProt Q99640).
T4 sequence (Q99640 whole entry): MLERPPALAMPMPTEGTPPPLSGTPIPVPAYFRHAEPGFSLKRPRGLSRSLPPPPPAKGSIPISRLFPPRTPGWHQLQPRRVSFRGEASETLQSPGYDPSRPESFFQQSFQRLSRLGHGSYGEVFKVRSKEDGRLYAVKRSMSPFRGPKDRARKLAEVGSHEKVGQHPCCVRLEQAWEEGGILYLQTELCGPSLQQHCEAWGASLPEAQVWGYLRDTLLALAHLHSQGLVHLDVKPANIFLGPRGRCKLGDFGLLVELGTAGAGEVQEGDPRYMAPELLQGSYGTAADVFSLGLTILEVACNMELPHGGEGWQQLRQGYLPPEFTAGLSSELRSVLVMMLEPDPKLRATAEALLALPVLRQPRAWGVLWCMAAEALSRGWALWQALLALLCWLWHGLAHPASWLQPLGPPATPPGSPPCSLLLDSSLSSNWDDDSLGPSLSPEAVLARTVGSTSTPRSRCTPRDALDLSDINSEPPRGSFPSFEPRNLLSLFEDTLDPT

The target of experiment [11] is Mitogen-activated protein kinase kinase kinase 20 (Homo sapiens, UniProt Q9NYL2).
Sequence of Mitogen-activated protein kinase kinase kinase 20 (Q9NYL2 whole entry): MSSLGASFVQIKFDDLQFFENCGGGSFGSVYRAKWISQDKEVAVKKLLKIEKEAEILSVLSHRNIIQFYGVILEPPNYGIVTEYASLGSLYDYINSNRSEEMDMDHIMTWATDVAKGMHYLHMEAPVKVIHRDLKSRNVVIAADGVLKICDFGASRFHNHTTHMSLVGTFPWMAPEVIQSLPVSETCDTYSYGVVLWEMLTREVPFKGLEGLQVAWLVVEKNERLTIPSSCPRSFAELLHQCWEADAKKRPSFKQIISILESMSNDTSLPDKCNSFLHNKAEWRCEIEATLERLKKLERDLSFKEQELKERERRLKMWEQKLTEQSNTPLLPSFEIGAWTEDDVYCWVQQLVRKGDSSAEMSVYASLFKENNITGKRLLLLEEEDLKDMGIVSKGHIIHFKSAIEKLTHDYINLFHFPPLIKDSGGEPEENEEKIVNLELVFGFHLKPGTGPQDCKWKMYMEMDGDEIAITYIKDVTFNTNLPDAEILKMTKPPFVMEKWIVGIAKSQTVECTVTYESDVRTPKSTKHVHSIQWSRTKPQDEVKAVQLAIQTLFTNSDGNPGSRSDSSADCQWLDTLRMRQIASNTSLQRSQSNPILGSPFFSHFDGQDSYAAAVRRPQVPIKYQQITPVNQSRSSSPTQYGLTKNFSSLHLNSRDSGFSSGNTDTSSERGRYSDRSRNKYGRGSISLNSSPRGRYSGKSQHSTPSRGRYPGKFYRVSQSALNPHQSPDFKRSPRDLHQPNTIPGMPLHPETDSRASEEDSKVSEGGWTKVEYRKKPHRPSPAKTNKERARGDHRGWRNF
The target in experiment [12] is Mitogen-activated protein kinase 9 (Homo sapiens, UniProt P45984).
Sequence of Mitogen-activated protein kinase 9 (P45984 whole entry, canonical isoform): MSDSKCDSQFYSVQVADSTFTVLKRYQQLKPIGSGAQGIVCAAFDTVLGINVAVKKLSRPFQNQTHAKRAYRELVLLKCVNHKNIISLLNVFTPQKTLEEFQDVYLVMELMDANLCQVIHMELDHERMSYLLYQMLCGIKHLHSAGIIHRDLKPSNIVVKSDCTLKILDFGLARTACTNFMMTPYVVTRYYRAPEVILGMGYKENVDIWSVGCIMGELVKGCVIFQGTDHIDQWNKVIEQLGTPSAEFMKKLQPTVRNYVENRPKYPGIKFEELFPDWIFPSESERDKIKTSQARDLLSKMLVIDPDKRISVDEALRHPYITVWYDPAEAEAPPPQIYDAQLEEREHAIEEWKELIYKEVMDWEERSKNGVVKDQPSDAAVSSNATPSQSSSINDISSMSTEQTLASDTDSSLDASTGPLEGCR
In experiment [13] the target is Casein kinase I isoform delta (Homo sapiens, UniProt P48730).

This is an account of results in ChEMBL document CHEMBL1150977, “A quantitative analysis of kinase inhibitor selectivity” (Nat Biotechnol, 2008).

Sequence of Aurora kinase B (Q96GD4 whole entry): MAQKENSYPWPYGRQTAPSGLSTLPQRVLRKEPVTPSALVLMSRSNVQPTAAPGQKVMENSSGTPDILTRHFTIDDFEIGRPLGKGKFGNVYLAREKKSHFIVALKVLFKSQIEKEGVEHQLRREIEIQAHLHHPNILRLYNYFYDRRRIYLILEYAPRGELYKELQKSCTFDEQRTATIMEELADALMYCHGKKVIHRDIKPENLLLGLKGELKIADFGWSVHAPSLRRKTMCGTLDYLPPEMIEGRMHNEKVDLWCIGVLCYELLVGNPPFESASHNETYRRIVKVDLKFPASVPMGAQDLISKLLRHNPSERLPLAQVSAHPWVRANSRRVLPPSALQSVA
Sequence of Receptor tyrosine-protein kinase erbB-2 (P04626 whole entry): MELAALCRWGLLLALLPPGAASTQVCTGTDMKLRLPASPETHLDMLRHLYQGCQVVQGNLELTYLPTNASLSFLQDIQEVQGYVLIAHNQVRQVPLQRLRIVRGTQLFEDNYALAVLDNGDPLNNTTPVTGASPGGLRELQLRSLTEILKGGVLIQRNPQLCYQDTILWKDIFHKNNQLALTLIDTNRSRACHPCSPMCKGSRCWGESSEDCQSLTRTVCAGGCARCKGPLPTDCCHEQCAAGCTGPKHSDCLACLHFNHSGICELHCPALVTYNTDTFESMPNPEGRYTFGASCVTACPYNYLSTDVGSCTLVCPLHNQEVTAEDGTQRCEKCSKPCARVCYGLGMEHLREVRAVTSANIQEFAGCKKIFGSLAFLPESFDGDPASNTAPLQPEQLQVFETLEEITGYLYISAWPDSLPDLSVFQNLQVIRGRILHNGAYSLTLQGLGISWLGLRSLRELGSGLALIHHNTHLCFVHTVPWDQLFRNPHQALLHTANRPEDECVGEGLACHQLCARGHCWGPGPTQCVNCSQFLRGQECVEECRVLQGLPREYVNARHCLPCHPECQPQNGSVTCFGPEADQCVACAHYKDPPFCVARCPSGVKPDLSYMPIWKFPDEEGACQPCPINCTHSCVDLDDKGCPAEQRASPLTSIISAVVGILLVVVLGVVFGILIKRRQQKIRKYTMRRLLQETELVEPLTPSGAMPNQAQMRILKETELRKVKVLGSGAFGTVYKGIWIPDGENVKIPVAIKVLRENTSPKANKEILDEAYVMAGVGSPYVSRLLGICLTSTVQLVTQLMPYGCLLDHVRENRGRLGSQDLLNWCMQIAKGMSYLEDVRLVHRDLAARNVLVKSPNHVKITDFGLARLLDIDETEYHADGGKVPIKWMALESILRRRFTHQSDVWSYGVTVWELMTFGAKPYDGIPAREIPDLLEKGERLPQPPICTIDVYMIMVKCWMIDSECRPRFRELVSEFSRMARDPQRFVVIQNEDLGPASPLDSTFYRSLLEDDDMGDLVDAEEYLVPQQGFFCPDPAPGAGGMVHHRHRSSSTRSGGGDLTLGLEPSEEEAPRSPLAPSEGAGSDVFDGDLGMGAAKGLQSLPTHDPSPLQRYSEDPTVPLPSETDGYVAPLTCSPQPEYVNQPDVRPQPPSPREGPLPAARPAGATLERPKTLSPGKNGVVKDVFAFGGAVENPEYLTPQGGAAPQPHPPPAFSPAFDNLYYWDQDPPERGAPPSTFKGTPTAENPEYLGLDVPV
Sequence of Dual specificity mitogen-activated protein kinase kinase 2 (P36507 whole entry): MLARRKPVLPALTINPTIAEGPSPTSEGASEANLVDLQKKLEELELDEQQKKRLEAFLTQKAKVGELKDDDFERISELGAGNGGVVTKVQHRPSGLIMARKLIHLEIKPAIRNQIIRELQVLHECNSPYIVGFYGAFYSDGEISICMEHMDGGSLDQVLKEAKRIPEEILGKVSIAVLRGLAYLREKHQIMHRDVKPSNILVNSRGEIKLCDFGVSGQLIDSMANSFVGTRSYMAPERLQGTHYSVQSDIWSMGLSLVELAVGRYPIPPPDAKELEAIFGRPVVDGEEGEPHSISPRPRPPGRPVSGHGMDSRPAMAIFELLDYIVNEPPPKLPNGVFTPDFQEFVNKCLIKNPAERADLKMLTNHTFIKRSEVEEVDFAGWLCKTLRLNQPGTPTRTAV

Turning to `Oc1ccc(-c2nc(-c3ccncc3)c(-c3ccc(F)cc3)[nH]2)cc1` [SB-202190], the Kd (in experiment [1]; in experiment [2]; in experiment [3]; at Aurora kinase B; in [4]; on Activin receptor type-1) was greater than 10 µM in each case. For the same molecule, the Kd (in general, the equilibrium constant for the complex coming apart) in [5] is greater than 10 µM; in experiment [6] it was 9.6 µM; in experiment [7], greater than 10 µM; at Myosin-IIIa it was greater than 10 µM; in [8], greater than 10 µM; in experiment [9], greater than 10 µM. Moreover, the Kd in experiment [10] and in experiment [11] was greater than 10 µM each time.
For `CCN1CCN(Cc2ccc(NC(=O)Nc3ccc(Oc4cc(NC)ncn4)cc3)cc2C(F)(F)F)CC1` [AST-487], the Kd on Aurora kinase B was greater than 10 µM.
Regarding `COCC(=O)NC/C=C/c1ccc2ncnc(Nc3ccc(Oc4ccc(C)nc4)c(C)c3)c2c1` [CP-724714], the Kd (in experiment [2]; in [3]; on Aurora kinase B; in experiment [4]; at Activin receptor type-1; in experiment [5]) was greater than 10 µM each time. Further, the Kd (in [6]; in experiment [7]; at Myosin-IIIa; in experiment [8]; in [12]; in [9]) was greater than 10 µM in each case. Moreover, the Kd in experiment [10], in experiment [11] and in experiment [13] was greater than 10 µM throughout.
In the case of `Nc1nc(Nc2ccc(S(N)(=O)=O)cc2)nn1C(=O)c1c(F)cccc1F` [JNJ-7706621], the dissociation constant Kd (in experiment [1]; in [7]; on Myosin-IIIa; in [10]; in experiment [11]; in [13]) was greater than 10 µM in each case.
As for `NC(=O)c1ccc(-c2nc(-c3ccc4c(c3)OCO4)c(-c3ccccn3)[nH]2)cc1` [SB-431542], the Kd (in [1]; in experiment [2]; in [3]; on Aurora kinase B; in [4]; on Activin receptor type-1) was greater than 10 µM throughout. In addition, the Kd (in experiment [5]; in [6]; in [7]; at Myosin-IIIa; in experiment [8]; in [12]) was greater than 10 µM in each case. The Kd in [9], in [10] and in experiment [11] was greater than 10 µM each time.
Take `CCOc1cc2ncc(C#N)c(Nc3ccc(F)c(Cl)c3)c2cc1NC(=O)/C=C/CN(C)C` [PELITINIB]: the Kd in experiment [1] was 0.5 µM; in [2], greater than 10 µM; in experiment [3], greater than 10 µM; at Aurora kinase B, greater than 10 µM; at Activin receptor type-1, greater than 10 µM; in experiment [5] it was greater than 10 µM. For the same molecule, the Kd is 8.7 µM in experiment [7]; greater than 10 µM on Myosin-IIIa; greater than 10 µM in experiment [8]; greater than 10 µM in experiment [12]; 2.9 µM in [10]; 1.2 µM in [11]. The molecule further gave a Kd in [13] of 1.1 µM.
